In US4650868A, “7-deazapurine derivatives useful as antitumor agents” (Takeda Chemical Industries, Ltd., priority 1984, dated 1987):
In brackets after ≈: the same amount, converted by molar mass.

What was measured:
[1] = system: rat liver tRNA-guanine transglycosylase; experiment: Uptake of the compound into [3H]guanine-labeled tRNA; assay type: biochemical; conditions: 0.02 OD260 of compound, 37° C., 17 hours, [3H]guanine labeled tRNA (8000 cpm)
Procedure: [^3 H] guanine labeled tRNA*) (8000 cpm), 70 mM of […], 60 mM of magnesium chloride, 0.5 unit of rat liver tRNA-guanine transglycosylase and 0.02 OD260 of the compound obtained in Example 1 to be described hereinafter were prepared to the total volume of 100 μl, and the reaction was allowed to proceed at 37° C. for 17 hours. The reaction solution was applied to a Whatman 3 MM filter paper (produced by Whatman Co., U.S.A.), which was washed three times with a 5% aqueous solution of trichloroacetic acid and once successively with ethanol/ether (1:1) and ether alone.
(*) tRNA with the first letter of its anticodon labeled with [^3 H]-guanine.

L5178Y mouse tumor cells = experiment: Growth inhibition of cultured L5178Y cells; assay type: cell-based; conditions: 72 hours incubation with drug, cell count, non-treated control = 100%, read-out: IC50 (50% growth inhibitory concentration)
Procedure: 1×10^4 L5178Y mouse tumor cells were suspended in 2 ml of a RPMI-1640 medium (produced by Nissui Pharmaceutical Co. of Japan) containing 10% of bovine fetal serum, 20 μM of 2-mercaptoethanol and 100 μg/ml of Kanamycin, and incubated at 37° C. for 24 hours before addition of the drug. Using the above culture fluid as a diluent, the compound as obtained in Example 3 to be described hereinafter was diluted 1/4-fold in a series of 5 stages and added to the culture medium in such a manner that the maximum concentration of the compound might be 200 μg/ml. The dilutions were further incubated for 72 hours, at the end of which time the cells were counted with use of a counter and the IC50 (50% growth inhibitory concentration) was calculated with the count for the non-treated control group being taken as 100%. The IC50 value was 2.0 μg/ml.

Meth A tumor cells = experiment: Meth A tumor subcutaneously transplanted into BALB/c mouse; assay type: in vivo; conditions: 100 mg/kg intraperitoneally once a day for 14 consecutive days from day 4; tumor weight on 35th day after transplantation
Procedure: 5×10^4 Meth A tumor cells were subcutaneously transplanted into a BALB/c mouse weighing 20 g, and starting with the fourth day after transplantation, a solution of the compound as obtained in Example 3 to be described hereinafter in 0.1 ml of distilled water prepared in such a way that a dose might be 100 mg/kg was intraperitoneally injected into the mouse once a day for 14 consecutive days. On the 35th day after transplantation, the tumor node was enucleated and its weight (T) was measured.

SMILES | uptake of the test compound into tRNA [1] [%] | IC50 (L5178Y mouse tumor cells) [µg/mL] | tumor inhibition rate (T/C) (Meth A tumor cells) [%]
COc1ccccc1NCc1c[nH]c2nc(N)[nH]c(=O)c12 [Example 1, 2-amino-5-(2-methoxyphenylaminomethyl)pyrrolo[2,3-d]pyrimidin-4-one] | 120 | – | –
COc1cc(NCc2c[nH]c3nc(N)[nH]c(=O)c23)cc(OC)c1OC [Example 2 (2), 2-Amino-5-(3,4,5-trimethoxyphenylaminomethyl)pyrrolo[2,3-d]pyrimidin 4-one] | 140 | – | –
Nc1ccc(NCc2c[nH]c3nc(N)[nH]c(=O)c23)cc1 [Example 3, 2-amino-5-(4-aminophenylaminomethyl)pyrrolo[2,3-d]pyrimidin-4-one] | – | 2 (≈ 7.4 µM) | 36
